This note sets out measurements from patent US11952365B2, “Anti-viral compounds” (Aligos Therapeutics, Inc., priority 2020, dated 2024).

A value given as a limit tells only on which side of the number the result lay.

One may read the EC50 as the concentration at which the effect is half-maximal. In general, IC50 refers to the concentration needed to halve the response being measured.

A short description of series [1]: in vitro. Particulars: human.
The subject of series [2] is human beta-coronavirus OC43. The experiment in a line: microbe, parasite or virus in culture. The series is classed as cell-based. The conditions noted are these: Betacoronavirus 1, OC43, HeLa, 144 h, OC43 in HeLa cells, 6 days at 33° C., class symbols; read-out: EC50.
A short description of series [3]: in vitro. The conditions noted are these: African green monkey, VeroE6 + CP (CC50), Vero E6-eGFP cells with CP-100356, absence of virus, MTS; numeric bounds.
A short description of series [4]: Cytotoxicity plates without OC43 virus (cell-titer-glo). The series is classed as cell-based, human. The conditions noted are these: human; HeLa cells without OC43 virus, class symbols. The procedure, abridged:
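HeLa cells seeded overnight, then treated with serially diluted compounds in 2% FBS EMEM, uninfected, in parallel with the OC43 antiviral plates. Incubated 6 days at 33 °C; viability read by CellTiter-Glo luminescence.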

Series [5] relates to SARS-CoV-2-GHB-03021/2020. Nature of the series: microbe, parasite or virus in culture. The series is classed as cell-based. The conditions noted are these: Severe acute respiratory syndrome coronavirus 2, Vero C1008, 96 h; read-out: VeroE6 + CP (EC50).
For series [6], the system named is SARS-CoV-2-GHB-03021/2020. The experiment in a line: SARS-CoV-2 Infection Model in Huh7 Cells. The conditions noted are these: Severe acute respiratory syndrome coronavirus 2, Huh-7, 96 h, SARS-CoV-2, day 4 p.i., MTS, class symbols. The series is classed as cell-based.
The next series deals with T1, human cathepsin L (Homo sapiens, UniProt P07711).
T1 construct: purchased R&D Systems
The experiment in a line: cathepsin L assay. Particulars: 10 pM human cathepsin L, Z-FR-AMC 2 μM, class symbols. The series is classed as biochemical. In a few lines:
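Human cathepsin L at 10 pM was preincubated 30 min with compound, then reaction started with Z-FR-AMC (2 μM final). Fluorescence (355/460 nm) read every 2 min for 30 min; IC50 from four-parameter curve fit.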

For a further series, the target named is HRV3C (Human rhinovirus 14, UniProt P03303). Nature of the series: HRV3C protease assay (duplex, SAMDI-MS). The series is classed as biochemical, HRV. Particulars: HRV3C, 30 mins preincubation, class symbols; read-out: HRV IC50. In a few lines:
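Steps: enzymes (HRV3C plus 3CLpro) and compound preincubated 30 min; two peptide substrates added; 30 min reaction at ambient temperature; formic acid quench; SAMDI capture and reflector-positive TOF analysis. Product quantified against internal standard peptides. IC50 by four-parameter equation.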

Another series concerns the target 3CLpro (Severe acute respiratory syndrome coronavirus 2, UniProt P0DTD1). Nature of the series: SARS-CoV-2 3CLpro protease assay (duplex, SAMDI-MS). The series is classed as biochemical. Also on record: For the duplex assay, 3CLpro and HRV3C was added. The conditions noted are these: 3CLpro, 30 mins preincubation, class symbols; read-out: SARS-Cov-2 IC50.

Take `COc1cccc2[nH]c(C(=O)N3CC4(CC4)C[C@H]3C(=O)N[C@@H](C[C@@H]3CCCNC3=O)C(=O)CO)cc12` [Compound 42, (S)—N—((S)-4-hydroxy-3-oxo-1-((S)-2-oxopiperidin-3-yl)butan-2-yl)-5-(4-methoxy-1H-indole-2-carbonyl)-5-azaspiro[2.4]heptane-6-carboxamide]: the CC50 in “in vitro [1]” and in the series “in vitro [3]” was above 100 µM each time. For the same compound, the values for the EC50 in series [2], in series [5] and in series [6] were 100 to 1000 nM, 1 to 10 µM and 1 to 10 µM, respectively. The CC50 at 6 days in [4] is above 10 µM. For the same compound, the IC50 is at least 10 µM against human cathepsin L, 2000 to 20000 nM on HRV3C and 20 to 200 nM at 3CLpro.
For `O=C1NCC[C@H]1C[C@H](NC(=O)[C@@H]1[C@H]2CCC[C@H]2CN1C(=O)c1cc2c(OC(F)F)cccc2[nH]1)C(=O)CO` [Compound 87, (1S,3aR,6aS)-2-[4-(difluoromethoxy)-1H-indole-2-carbonyl]-N-[(2S)-4-hydroxy-3-oxo-1-[(3S)-2-oxopyrrolidin-3-yl]butan-2-yl]-hexahydro-1H-cyclopenta[c]pyrrole-1-carboxamide], the values for the CC50 in “in vitro [1]” and in “in vitro [3]” were above 10 µM and above 100 µM, respectively. Moreover, the EC50 in series [2] was below 100 nM; in [5], below 1 µM; in [6] it was 1 to 10 µM. In addition, in [4], the CC50 at 6 days was above 10 µM. Besides, the IC50 on human cathepsin L is at least 10 µM; at HRV3C it was 2000 to 20000 nM; at 3CLpro, below 20 nM.
For `COc1cccc2[nH]c(C(=O)N3C[C@]4(C[C@H]3C(=O)N[C@@H](C[C@@H]3CCCNC3=O)C(=O)C(=O)NC(C)C)CC4(F)F)cc12` [Compound 34], the CC50 in “in vitro [1]” and in the series “in vitro [3]” was above 100 µM throughout. The values for the EC50 in [2], in series [5] and in [6] were 100 to 1000 nM, 1 to 10 µM and 10 to 100 µM, respectively. In series [4], this compound gave a CC50 at 6 days above 10 µM. Moreover, the IC50 against human cathepsin L is at least 10 µM; on HRV3C, 200 to 2000 nM; at 3CLpro it was 20 to 200 nM.
Consider `CC(=O)c1c[nH]c(C(=O)N2C[C@@H]3CCC[C@@H]3[C@H]2C(=O)N[C@@H](C[C@@H]2CCNC2=O)C(=O)CO)c1` [Compound 86, (1S,3aR,6aS)-2-(4-acetyl-1H-pyrrole-2-carbonyl)-N-[(2S)-4-hydroxy-3-oxo-1-[(3S)-2-oxopyrrolidin-3-yl]butan-2-yl]-hexahydro-1H-cyclopenta[c]pyrrole-1-carboxamide], for which the CC50 in “in vitro [1]” and in “in vitro [3]” was above 50 µM throughout. Besides, the EC50 in series [2] was 1000 to 10000 nM; in series [5], 10 to 100 µM; in series [6] it was 10 to 100 µM. This compound showed a CC50 at 6 days in series [4] above 10 µM. Moreover, the IC50 against human cathepsin L was at least 10 µM; on HRV3C, 2000 to 20000 nM; at 3CLpro it was 20 to 200 nM.
For the compound `O=C(NCc1ccccc1)C(=O)C(C[C@@H]1CCNC1=O)NC(=O)[C@@H]1C[C@@H](C(F)(F)F)CN1C(=O)c1cc2ccccc2[nH]1` (stereo partly drawn) [Compound 19, N-benzyl-3-[[(2S,4R)-1-(1H-indole-2-carbonyl)-4-(trifluoromethyl)pyrrolidin-2-yl]formamido]-2-oxo-4-[(3S)-2-oxopyrrolidin-3-yl]butanamide], the results for the CC50 in the series “in vitro [1]” and in the series “in vitro [3]” were above 10 µM and above 100 µM, respectively. For the same compound, the EC50 in [2] lay in the range of 100 to 1000 nM; in series [5], 1 to 10 µM; in [6] it was 1 to 10 µM. In addition, the CC50 at 6 days in [4] is above 10 µM. In addition, the IC50 against human cathepsin L lay within 0.1 to 1 µM; on HRV3C it was 2000 to 20000 nM; at 3CLpro, 200 to 2000 nM.
